Values quoted from earlier work in publication PMC5698879 (Inorganic Chemistry, 2017).
Like-named read-outs stand apart in the source and are kept apart here.

Settings: [Cu^2+]tot = [chelator]tot = 50 μM

- Calculated pCu (−log [Cu]free) (pH 6.6): 9.7
- Calculated pCu (−log [Cu]free) (pH 7.4): 10.7
SMILES: O=C(O)CN(CCN(CC(=O)O)CC(=O)O)CCN(CC(=O)O)CC(=O)O [DTPA, diethylenetriaminepentacetic acid]
